Test results as given in publication PMC6128263 (Biochemistry, 2018).
Where two headings read alike, the source gives them in different places.

Key:
Mtb Rv3802 [1] = target: T1, Mtb Rv3802 (Mycobacterium tuberculosis, UniProt O53581); test: biochemical; type: biochemical
Mtb Rv3802 [2] = target: T1, Mtb Rv3802; type: biochemical; settings: 100 μM inhibitor, no preincubation time
Mtb Pks13-TE [3] = target: T2, Mtb Pks13-TE (Mycobacterium tuberculosis, UniProt I6X8D2); test: Initial inhibition screen, Pks13-TE activity assay; type: biochemical
T2 sequence (I6X8D2 1451-1733 limits assumed): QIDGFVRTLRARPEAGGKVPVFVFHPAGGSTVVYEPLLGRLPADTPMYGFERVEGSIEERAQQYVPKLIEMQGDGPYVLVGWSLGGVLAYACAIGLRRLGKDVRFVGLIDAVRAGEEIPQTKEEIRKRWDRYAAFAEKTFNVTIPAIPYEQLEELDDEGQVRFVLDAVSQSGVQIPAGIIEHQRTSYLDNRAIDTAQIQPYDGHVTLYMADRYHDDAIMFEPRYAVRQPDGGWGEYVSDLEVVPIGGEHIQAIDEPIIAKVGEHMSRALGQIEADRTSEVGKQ

Mtb Ag85C [4] = target: T3, Mtb Ag85C (Mycobacterium tuberculosis, UniProt P9WQN9); test: Ag85C kinact/KI determination; type: biochemical
T3 sequence (P9WQN9 46-340): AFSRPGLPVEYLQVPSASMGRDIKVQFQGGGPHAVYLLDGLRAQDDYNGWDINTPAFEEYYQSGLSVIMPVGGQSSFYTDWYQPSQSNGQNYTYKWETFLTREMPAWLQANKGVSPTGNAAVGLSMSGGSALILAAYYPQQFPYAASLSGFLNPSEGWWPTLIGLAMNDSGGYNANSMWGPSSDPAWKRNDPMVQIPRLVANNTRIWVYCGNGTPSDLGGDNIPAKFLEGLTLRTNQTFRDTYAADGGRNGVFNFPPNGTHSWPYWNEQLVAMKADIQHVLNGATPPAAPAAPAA

Mtb Ag85C [5] = target: T3, Mtb Ag85C; test: Initial inhibition screen, Ag85C activity assay; type: biochemical; settings: for inhibition level of Ag85C: 100 μM inhibitor, 0 min preincubation, compared to the uninhibited control
Mtb Pks13-TE [6] = target: T2, Mtb Pks13-TE; test: Pks13-TE reversible covalent inhibition and influence of trehalose; type: biochemical
Mtb strain H37Rv = settings: cited from earlier work
Rv3802 = settings: THL to Rv3802, cited from earlier work
[7] = system: OC[C@H]1O[C@H](O[C@H]2O[C@H](CO)[C@@H](O)[C@H](O)[C@H]2O)[C@H](O)[C@@H](O)[C@@H]1O; test: purified protein, by the assay type; settings: other: Pks13-TE, acyl transfer from 4MH to trehalose; pH 7.5; 37.0 °C
[8] = 20 nM Rv3802, linear rates from 2 to 6 min, no preincubation
[9] = read-out: increase in inhibition level of Pks13-TE from 0 to 3 h
[10] = read-out: inhibition level of Pks13-TE at 4 h (decreased to)

T1 sequence (O53581 whole entry): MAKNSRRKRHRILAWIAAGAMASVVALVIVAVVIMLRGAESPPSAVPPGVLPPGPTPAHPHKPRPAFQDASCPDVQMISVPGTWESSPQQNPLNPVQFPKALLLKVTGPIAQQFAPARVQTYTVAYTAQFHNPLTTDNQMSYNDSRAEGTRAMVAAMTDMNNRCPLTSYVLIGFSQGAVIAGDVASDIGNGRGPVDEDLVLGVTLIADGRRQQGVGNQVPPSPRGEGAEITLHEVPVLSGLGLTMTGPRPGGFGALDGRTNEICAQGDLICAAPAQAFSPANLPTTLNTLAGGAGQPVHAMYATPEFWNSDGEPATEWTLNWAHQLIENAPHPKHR

## CCCCCCCCCCCC(CC1OC(=O)C1CCCCCC)OC(=O)C(CC(C)C)NC=O (single isomer, unassigned; ent1) [ent1-THL]
Mtb Rv3802 [1]; [8]
  EC50: 15.9 ± 1 µM
Mtb Rv3802 [2]; 100 µM
  inhibition level of Rv3802: 85.1 ± 1.4%

## CCCCCCCCCCC[C@H](C[C@H]1OC(=O)[C@@H]1CCCCCC)OC(=O)[C@H](CC(C)C)NC=O (single isomer, unassigned; ent2) [ent2-THL]
Mtb Rv3802 [1]; [8]
  EC50: 15.9 ± 1.1 µM
Mtb Rv3802 [2]
  inhibition level of Rv3802: 83.9 ± 0.6%
Mtb Pks13-TE [3]; 100 μM inhibitor, 1 h preincubation, compared to uninhibited reactions
  Pks13-TE activity remaining: ~ 30%

## CCCCCCCCCCCC(CC1OC(=O)C1CCCCCC)OC(=O)C(CC(C)C)NC=O (single isomer, unassigned; ent3) [ent3-THL]
Mtb Rv3802 [1]; [8]
  EC50: 16.6 ± 0.9 µM
Mtb Rv3802 [2]; 100 µM
  inhibition level of Rv3802: 83.0 ± 2.9%

## CCCCCCCCCCCC(CC1OC(=O)C1CCCCCC)OC(=O)C(CC(C)C)NC=O (single isomer, unassigned; ent4) [ent4-THL]
Mtb Rv3802 [1]; [8]
  EC50: 62.1 ± 4.1 µM
Mtb Rv3802 [2]; 100 µM
  inhibition level of Rv3802: 79.0 ± 1.7%

## CCCCCCCCCCC[C@H](C[C@@H]1OC(=O)[C@H]1CCCCCC)OC(=O)[C@@H](CC(C)C)NC=O [2′,5-epi-THL]
Mtb Rv3802 [1]; [8]
  EC50: 0.0287 ± 0.0031 µM
Mtb Rv3802 [2]
  inhibition level of Rv3802: completely inhibit

## CCCCCCCCCCC[C@@H](C[C@@H]1OC(=O)[C@H]1CCCCCC)OC(=O)[C@@H](CC(C)C)NC=O [2′-epi-THL]
Mtb Ag85C [4]; Ag85C
  fold lower binding affinity (KI) compared to THL: ~ 4.5 fold
  fold lower kinact/KI value compared to THL: ~ 4 fold
Mtb Ag85C [4]; Ag85C, inhibitor 300 to 12.5 μM, 40 min progress curves
  kinact/KI: 1.1 ± 0.3 × 10^−3 μM^−1 min^−1
Mtb Rv3802 [1]; [8]
  EC50: 0.0092 ± 0.0005 µM
Mtb Rv3802 [2]
  inhibition level of Rv3802: completely inhibit
Mtb Ag85C [5]
  inhibition level of Ag85C: 35.8 ± 2.2%

## CCCCCCCCCCC[C@H](C[C@@H]1OC(=O)[C@H]1CCCCCC)OC(=O)[C@H](CC(C)C)NC=O [5-epi-THL]
Mtb Rv3802 [1]; [8]
  EC50: 0.0126 ± 0.0012 µM
Mtb Rv3802 [2]
  inhibition level of Rv3802: completely inhibit
Mtb Ag85C [5]
  inhibition level of Ag85C: 12.3 ± 2.6%

## CCCCCCCCCCC[C@@H](C[C@@H]1OC(=O)[C@H]1CCCCCC)OC(=O)[C@H](CC(C)C)NC=O [THL, Tetrahydrolipstatin]
Mtb Ag85C [4]
  kinact/KI: 70 M⁻¹ s⁻¹
Mtb Rv3802 [1]
  EC50: 0.0162 ± 0.0008 µM
Mtb Pks13-TE [6]; Pks13-TE versus Rv3802
  retention of covalent coupling with THL, fold longer than Rv3802: at least 10 fold
Mtb Pks13-TE [6]; THL inhibition with versus without trehalose
  slowing of the rate of inactivation of Pks13-TE by presence of trehalose: 48 ± 6.7%
Mtb Pks13-TE [6]; [9]
  inhibition at 12.5 µM: 62.3 ± 5%
  inhibition at 25 µM: 61.8 ± 3.5%
  inhibition at 50 µM: 44.1 ± 3.5%
Mtb Pks13-TE [6]; [10]
  inhibition at 12.5 µM: 15.2 ± 1.4%
  inhibition at 25 µM: 11.6 ± 0.4%
  inhibition at 50 µM: 16 ± 2.1%
Mtb strain H37Rv
  minimum inhibitory concentration (MIC): ~ 15 μM
Mtb Rv3802 [2]
  inhibition level of Rv3802: completely inhibit
Mtb Ag85C [5]; read-out: inhibition level of Ag85C
  inhibition at 100 µM: 31.8 ± 5.9%
Mtb Pks13-TE [3]; read-out: inhibition level of Pks13-TE
  inhibition at 100 µM: 50 to 60%
Rv3802
  IC50: low micromolar
Rv3802; read-out: apparent KI
  Ki: 0.005 µM

## Mtb Pks13-TE (Mycobacterium tuberculosis H37Rv)
[7]
  Km: 56.6 ± 7.9 mM
